Tested on: spiral strips of the pulmonary artery of the guinea-pig
Assay: relaxing action on potassium-depolarised, CaCl2-contracted spiral strips of the pulmonary artery (modified method of Godfraind and Kaba and of Schuman et al.)
Assay type: cell-based
Settings: for IC50: Cavia porcellus, guinea-pig pulmonary artery strips, 40 mmol/l potassium, contraction by 0.5 mmol/l CaCl2, cumulative addition, average of 4 to 6 vessel strips, read-out: IC50 (concentration of the test substance which inhibits the contraction by 50%); for Duration of action: time needed after addition of the test substance until the starting value is obtained again
Experimental: The pharmacological action of the compounds of the formula I was determined by a modified method of Godfraind and Kaba (Arch. Int. Pharmacodyn. Ther. 196, (Suppl) 35 to 49, 1972) and of Schuman et al. (Naunyn-Schmiedeberg's Arch. Pharmacol. 289, 409 to 418, 1975). In this connection, spiral strips of the pulmonary artery of the guinea-pig are depolarised with 40 mmol/l of potassium after equilibration in calcium-free Tyrode solution. An addition of 0.5 mmol/l of CaCl2 then induces a contraction. The relaxing action of the test substance is determined by cumulative addition in 1/2 log 10 stepped concentrations. From the concentration-effect curve (abscissa: -log mol/l of test substance, ordinate: % inhibition of the maximum contraction, average value of 4 to 6 vessel strips), the concentration of the test substance is determined which inhibits the contraction by 50% (=IC50, mol/l). The duration of action of the test substance is given by the time which is needed after the addition of the test substance until the starting value is obtained again.

| SMILES | IC50 | Duration of action |
| --- | --- | --- |
| Cl.N=c1c[n+](N(C2CCCCC2)C2CCCCC2)[n-]o1 [3-Dicyclohexylaminosydnone imine hydrochloride] | 400 nM | 270 min |
| CCOC(=O)[N-]c1cn(N2CCOCC2)n[o+]1 [Molsidomine, NEthoxycarbonyl-3-morpholinosydnone imine, reference compound] | 300000 nM | 120 min |
| CC(C)(C)C(=O)[N-]c1c[n+](N(C2CCCCC2)C2CCCCC2)no1 [N-Pivaloyl-3-dicyclohexylaminosydnone imine] | 5000 nM | 310 min |
| COc1ccc(C(=O)[N-]c2c[n+](N(C3CCCCC3)C3CCCCC3)no2)cc1 [N-p-Anisoyl-3-dicyclohexylaminosydnone imine] | 3000 nM | 300 min |
| Cl.N=c1c[n+](N2CCOCC2)[n-]o1 [SIN-1, 3Morpholinosydnone imine hydrochloride, reference compound] | 1000 nM | 90 min |

From patent publication US5166166A, “3-dicyclohexylaminosydnone imines, process for their preparation and their use” (Cassella Aktiengesellschaft, priority 1990, dated 1992)
